What all share (assay): relative viability (nuclei count vs DMSO), 5 days (fraction); higher = more cells survive
Compound in the assay “Tosedostat + Decitabine”: CC(C)C[C@@H](C(=O)N[C@H](C(=O)OC1CCCC1)c1ccccc1)[C@H](O)C(=O)NO [Tosedostat] + Nc1ncn([C@H]2C[C@H](O)[C@@H](CO)O2)c(=O)n1 [Decitabine] (partner 2 µM)
Summed up: (§1)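 For relative viability, nuclei counts in treated wells were divided by those in vehicle wells. Lung cancer cell lines had been pin-tool dosed in 1536-well plates the day after seeding and cultured for 5 days, then fixed and stained in one step (final 0.05% Triton X-100, 1% formaldehyde, 1 ug/ml Hoechst) and imaged at 4×. Doses were one drug alone or a fixed anchor-drug dose plus five library-drug doses (not always all listed) in √10 steps, and values are duplicate-plate medians.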

Compound in assay [1]: CC1=NN=C(O1)C2=NN=C(C=C2)N3CCC(CC3)OC4=C(C=CC(=C4)F)Cl + Cc1nc(NC(=O)N2CCC[C@H]2C(N)=O)sc1-c1ccnc(C(C)(C)C(F)(F)F)c1 [Alpelisib] (partner 2 µM)
The gist of the method:
as §1

Compound in the assay “Tosedostat + Trametinib”: CC(C)C[C@@H](C(=O)N[C@H](C(=O)OC1CCCC1)c1ccccc1)[C@H](O)C(=O)NO [Tosedostat] + CC(=O)Nc1cccc(-n2c(=O)n(C3CC3)c(=O)c3c(Nc4ccc(I)cc4F)n(C)c(=O)c(C)c32)c1 [Trametinib] (partner 0.02 µM)
The gist of the method: as §1

Compound in assay [2]: CC1=NN=C(O1)C2=NN=C(C=C2)N3CCC(CC3)OC4=C(C=CC(=C4)F)Cl + C[C@@H](Oc1cc(-c2cnn(C3CCNCC3)c2)cnc1N)c1c(Cl)ccc(F)c1Cl [Crizotinib] (partner 1 µM)
Summed up:
as §1

As to UMC-11, the relative viability with Tosedostat + Decitabine (first compound 0.02 µM) was 0.687; in the assay with Tosedostat + Decitabine (first compound 0.06325 µM) it was 0.575; with Tosedostat + Decitabine (first compound 0.2 µM) it was 0.801; with Tosedostat + Decitabine (first compound 0.6325 µM) it was 0.568; with Tosedostat + Decitabine (first compound 2 µM), 0.587; in assay [1] (first compound 0.253 µM), 0.744. The relative viability in assay [1] (first compound 0.8 µM) came out at 0.679; in assay [1] (first compound 2.53 µM) it was 0.687; in assay [1] (first compound 8 µM), 0.667; with Tosedostat + Trametinib (first compound 0.02 µM), 0.863; with Tosedostat + Trametinib (first compound 0.06325 µM), 0.681; with Tosedostat + Trametinib (first compound 0.2 µM), 0.663. The relative viability with Tosedostat + Trametinib (first compound 0.6325 µM) was determined as 0.855; with Tosedostat + Trametinib (first compound 2 µM), 0.664; in assay [2] (first compound 0.253 µM), 0.468; in assay [2] (first compound 0.8 µM) it was 0.474; in assay [2] (first compound 2.53 µM) it was 0.476; in assay [2] (first compound 8 µM), 0.487.
